These results are taken from patent US10350272B2, “Calcitonin analogues for treating diseases and disorders” (KeyBioscience AG, priority 2015, dated 2019).

Test [1] has as its system liver sections from HFD-fed rats. The experiment in a line: Oil-Red-O staining of frozen liver sections. Type of test: in vivo, rat. On the procedure: At termination of the study of Example 2 the rat livers were embedded using snap freezing in OCT, and then sectioned using a cryomicrotome. Sections were prepared from four groups, KBP-042 in HFD rats, KBP-089 in HFD rats, control HFD rats, and a lean rat comparison.
The sections were stained using Oil-Red-O staining. […] The lipid accumulation in pair-fed KBP-089 liver exceeded KBP-089 treated rats with 66.5% (p<0.001) and was not significant different from vehicle (0.6711). Statistical test performed was one-way ANOVA with Dunnet's post test for multiple comparisons. **p<0.01, ***p<0.001.

For test [2] the following is noted: amylin dosage 100 μg kg^−1, compared with saline; cited from earlier work.
The test system of test [3] is rats. As to conditions: s.c., single dose 1000 mU/rat or 0.5-50 mU/rat over 12 weeks, dose dependently; cited from earlier work.
Test [4] deals with cultured rat hepatocytes. Conditions: cited from earlier work.

Where no end group is shown, it is not given here.

Regarding “AcCSNLSTCMLGRLSQDLHRLQTYPKTDVGANAP-NH2 (Ac-CSNLSTCMLGRLSQDLHRLQTYPKTDVGANAP-NH2; ends and bridges not checked) [KBP-089]”, the “excess of lipid accumulation in pair-fed KBP-089 liver over KBP-089 treated rats (Oil-Red-O)” value in test [1] (2.5 μg/kg, p<0.001) came out at 66.5%. In test [1] (HFD rats, 2.5 μg/kg daily), the “decrease of HFD-induced lipid accumulation in liver compared to vehicle (Oil-Red-O)” value was 155.3%.
In the case of “amylin (KCNTATCATQRLANFLVRSSNNLGPVLPPTNVGSNTY; ends and bridges not checked; cysteine pairing not given here; UniProt P12969 38-74, looked up) [amylin administered alone in Kusakabe et al (2011), reference compound]”, the tissue triglyceride content entry in test [2] is recorded as “neither L nor A decreased”.
For the molecule “salmon calcitonin [synthetic salmon calcitonin]”, in test [3], the serum cholesterol levels result was “reduced”, the serum lipoprotein levels entry was “reduced” and the serum triglyceride levels entry was “reduced”. The “incorporation of acetate into cholesterol and triglycerides” value in test [4] is on record as “reduced”.

B1: leptin (protein, UniProt P50596 22-167, looked up)
Leptin: VPIHKVQDDTKTLIKTIVTRINDISHTQSVSARQRVTGLDFIPGLHPILSLSKMDQTLAVYQQILTSLPSQNVLQIAHDLENLRDLLHLLAFSKSCSLPQTRGLQKPESLDGVLEASLYSTEVVALSRLQGSLQDILQQLDLSPEC
notes: leptin administered alone in Kusakabe et al (2011)
For the molecule B1, in test [2], the tissue triglyceride content result is “neither L nor A decreased”.
